The values that follow are results of earlier work, collected in publication PMC3985708 (Biochemistry, 2014).

Series [1] addresses unmodified hASL^Lys3. The conditions noted are these: read-out: Kd of NCp7 for unmodified ASL.
For series [2], the system named is modified hASL^Lys3.
The target in series [3] is modified hASL^Lys3UUU. Particulars: read-out: Kd, modified hASL^Lys3UUU; Kd value from previous studies.

For orientation: Kd means the equilibrium constant for the complex coming apart. “NCp7: HIV-1 nucleocapsid protein 7 (MQRGNFRNQRKIVKCFNCGKEGHTARNCRAPRKKGCWKCGKEGHQMKDCTERQAN; Nucleocapsid protein p7; UniProt P04591 378-432, looked up)”: the Kd was 2300 ± 620 nM in series [1] and 280 ± 30 nM in series [2] (read-out: Kd of NCp7 for modified ASL, modified hASL^Lys3). Moreover, the “Increase of NCp7 affinity for hASL^Lys3 by the modifications” value in series [2] (modified versus unmodified ASL) is recorded as around 10 fold.
With RVTHHAFLGAHRTVG [P6], the Kd in series [3] is 500 ± 100 nM.
